# Laboratory results from US10434199B2, “Picolinate cross-bridged cyclams, chelates with metallic cations and use thereof” (UNIVERSITÉ DE BRETAGNE OCCIDENTALE, priority 2013, dated 2019).
# Like-named read-outs stand apart in the source and are kept apart here.
# Columns and labels:
# [1] = cited from earlier work; for c) inertness vs Zn: log K[ZnL]: overview table, ligands of the prior art (** Delgado 1982, *** Chaves 1992)
# [2] = overview table, cited from earlier work; for a) metallation kinetics: time required for complete (>99%) Cu complexation (in words): ligands of the prior art
# [3] = 25.0° C., 0.10M KNO3; from Lima et al. 2012; cited from earlier work
# [4] = Potentiometric titrations: stability constants and pM of Cu^2+ complexes; format: physicochemical; conditions: for b) thermodynamic stability: pCu: overview table, calculated pM
# Procedure: Equipment and work conditions. The potentiometric setup has been described in Roger, M. et al. Inorg. […] Ligand solutions were prepared at about 2.0×10^−3 M, and the Cu^2+ and Zn^2+ solutions at ca. 0.05 M from analytical grade nitrate salts and standardized by complexometric titrations with H4edta (ethylenediaminetetraacetic acid). Sample solutions for titration contained approximately 0.04 mmol of ligand in a volume of 30 mL where the ionic strength was kept at 0.10 M using KNO3 as background electrolyte. Metal cations were added at 0.9 equiv. of the ligand amount in complexation titrations. Batch titrations were prepared in a similar way but with each titration point corresponding to 1/10 of the amount of a conventional titration sample.
# (§1) Measurements. All measurements were carried out at 25.0±0.1° C. under inert atmosphere. The electromotive force of the sample solutions was measured after calibration of the electrodes by titration of a standard HNO3 solution at 2.0×10^−3 M in the work conditions. The [H^+] of the solutions was determined by measurement of the electromotive force of the cell, E=E^o′+Q log [H^+]+Ej. The term pH is defined as −log [H^+]. E^o′ and Q were determined from the acid region of the calibration curves. Deviations from the Nernst law at very low pH (pH<2.5) were corrected with the VLpH software (Calibration software from the maker of Hyperquad available for free at http://www.hyperquad.co.uk/), which performs a [H^+] correction based on a very low pH calibration procedure.
# (§2) Calculations. The potentiometric data were refined with the Hyperquad software, and speciation diagrams were plotted using the HySS software. The overall equilibrium constants βi^H and βMmHhL1 are defined by βMmHhL1=[MmHhLl]/[M]^m[H]^h[L]^l (βi^H=[HhLl]/[H]^h[L]^l and βML-1L=βML(OH)×Kw). Differences in log units between the values of protonated (or hydrolysed) and non-protonated constants provide the stepwise (log K) reaction constants (being KMmHhL1=[MmHhLl]/[MmHh-1Ll][H]). The errors quoted are the standard deviations calculated by the fitting program from all the experimental data for each system.
# (§3) The stability constants of the complexes formed by Hcb-te1pa with Cu^2+ and Zn^2+ were determined by potentiometric titrations in aqueous solution at 25.0° C. in 0.10 M KNO3 ionic strength (Table 2).
# During titrations, each experimental point included a supplementary equilibration time in order to yield fully stabilized measurements. […] For this reason, batch titrations were prepared in the range of pH=4-6 and were left to equilibrate until full stabilization, while conventional titrations were used for the remaining pH regions.
# For a correct comparison of the thermodynamic stability of the complexes of Hcb-te1pa with the corresponding values of other ligands from the literature, the pM values that take into account the variable basicity properties of different ligands were also calculated (Table 3). […] The thermodynamic stability is not the only important criterion to determine the efficiency of metal complexation because, depending on the application, other factors such as kinetic inertness or in vivo stability can be more important.
# [5] = cited from earlier work; for b) thermodynamic stability: log K[CuL]: overview table, ligands of the prior art (* estimation by Anderson and Ferdani 2009)
# [6] = cited from earlier work; for half-life (t1/2), acid-assisted dissociation of copper(II) complex: literature value; for d) kinetic inertness: half-life (t1/2): copper chelates of prior-art ligands
# [7] = overview table; copper chelates of prior-art ligands; cited from earlier work
# [8] = Potentiometric titrations: stability constants and pM of Zn^2+ complexes; format: physicochemical; conditions: for c) inertness vs Zn: pZn: overview table, calculated pM
# Procedure: Equipment and work conditions. The potentiometric setup has been described in Roger, M. et al. Inorg. Chem. 2013, 52, 5246-5259. The titrant was a KOH solution prepared at ca. 0.1 M from a commercial ampoule of analytical grade, and its accurate concentration was obtained by application of the Gran's method upon titration of a standard HNO3 solution (Rossotti, F. J. and Rossotti, H. J. J. Chem. Educ. 1965, 42, 375-378). Ligand solutions were prepared at about 2.0×10^−3 M, and the Cu^2+ and Zn^2+ solutions at ca. 0.05 M from analytical grade nitrate salts and standardized by complexometric titrations with H4edta (ethylenediaminetetraacetic acid). Sample solutions for titration contained approximately 0.04 mmol of ligand in a volume of 30 mL where the ionic strength was kept at 0.10 M using KNO3 as background electrolyte. Metal cations were added at 0.9 equiv. of the ligand amount in complexation titrations. Batch titrations were prepared in a similar way but with each titration point corresponding to 1/10 of the amount of a conventional titration sample. Batch titration points were incubated in tightly closed vials at 25° C. until potential measurements attained complete stability, which happened within a week.
# as §1, with “procedure. The liquid-junction potential, Ej, was otherwise found to be negligible for pH >2.5 under the experimental conditions used. […] Each titration consisted of 80-100 equilibrium points in the range of pH 2.5-11.5 (or 1.5-11.5 for Cu^2+ complexations), and at least two replicate titrations were performed for each particular system.” for “procedure.”
# as §2, §3
# The equilibrium of formation of the copper(II) and especially the zinc(II) complexes is slow in the acidic pH range. In the case of Cu^2+, the complexation is almost complete from low pH but relatively slow up to pH=4. To overcome this double problem, conventional titrations were performed at pH values below 2 in order to observe a significant percentage of free metal ion (at least 18%) and thus allow for determination of the corresponding stability constant, while giving the solution enough time to reach equilibrium prior to the start of the titration. During titrations, each experimental point included a supplementary equilibration time in order to yield fully stabilized measurements. […]
# [9] = 25.0° C., I = 0.10M KNO3, from Lima et al. 2012
# [10] = pH = 7.4, 100% excess of ligand, [M^2+]tot = 1 × 10^−5 M
compound,measurement,setting,value
O=C(O)c1cccc(CN2CCCNCCNCCCNCC2)n1 [Hte1pa],"log KMLHh, ZnL + H^+ ⇌ ZnHL",[1]; [9],2.52 log units
same,"log KMLHh, ZnLOH + H^+ ⇌ ZnL",[1]; [9],11.02 log units
same,"log KMLHh, Zn^2+ + L ⇌ ZnL",[1]; [9],18.86 log units
same,"log βMLHh, Zn^2+ + H^+ + L ⇌ ZnHL",[1]; [9],21.38 log units
same,"log βMLHh, Zn^2+ + L ⇌ ZnL",[1]; [9],18.86 log units
same,"log βMLHh, Zn^2+ + L ⇌ ZnLOH + H^+",[1]; [9],7.84 log units
same,c) inertness vs Zn: log K[ZnL],[1],18.86
same,a) metallation kinetics: time required for complete (>99%) Cu complexation,[2]; ligand of the prior art,3 min
same,"log βi^H, L + 2 H^+ ⇌ H2L",[3],21.66 log units
same,"log βi^H, L + 3 H^+ ⇌ H3L",[3],24.37 log units
same,"log βi^H, L + 4 H^+ ⇌ H4L",[3],26.07 log units
same,"log βi^H, L + H^+ ⇌ HL",[3],11.55 log units
same,b) thermodynamic stability: pCu,[4],18.64
same,"Calculated pM, Cu^2+",[4]; [10],18.64
same,"log KMLHh, CuL + H^+ ⇌ CuHL",[5]; [9],2.17 log units
same,"log KMLHh, CuLOH + H^+ ⇌ CuL",[5]; [9],11.15 log units
same,"log KMLHh, Cu^2+ + L ⇌ CuL",[5]; [9],25.5 log units
same,"log βMLHh, Cu^2+ + H^+ + L ⇌ CuHL",[5]; [9],27.67 log units
same,"log βMLHh, Cu^2+ + L ⇌ CuL",[5]; [9],25.5 log units
same,"log βMLHh, Cu^2+ + L ⇌ CuLOH + H^+",[5]; [9],14.35 log units
same,b) thermodynamic stability: log K[CuL],[5],25.50
same,"half-life (t1/2), acid-assisted dissociation of copper(II) complex","[6]; 1M HCl, 25° C.",0.533 h
same,"half-life (t1/2), acid-assisted dissociation of copper(II) complex","[6]; 5M HClO4, 25° C.",2.4 h
same,d) kinetic inertness: half-life (t1/2),"[6]; HClO4, 5M, 25° C.",144 min
same,"e) stability upon reduction, Cu(II) -> Cu (I): reduction potential",[7],−1.05 V
same,"e) stability upon reduction, Cu(II) -> Cu (I): reversibility",[7],quasi-reversible
same,c) inertness vs Zn: pZn,[8],12.00
same,"Calculated pM, Zn^2+",[8]; [10],12.00
O=C(O)CN1CCN2CCN(CC1)CCN(CC(=O)O)CC2 [cb-do2a],a) metallation kinetics: time required for complete (>99%) Cu complexation (in words),[2],too slow
same,"half-life (t1/2), acid-assisted dissociation of copper(II) complex","[6]; 5M HCl, 30° C.",<0.033 h
same,d) kinetic inertness: half-life (t1/2),"[6]; HCl, 5M, 30° C.",<2 min
same,d) kinetic inertness: half-life (t1/2),"[6]; HCl, 5M, 90° C.",<3 min
same,"e) stability upon reduction, Cu(II) -> Cu (I): reduction potential",[7],−0.72 V
same,"e) stability upon reduction, Cu(II) -> Cu (I): reversibility",[7],irreversible
O=C(O)CN1CCCN2CCN(CCCN(CC(=O)O)CC2)CC1 [cb-te2a],a) metallation kinetics: time required for complete (>99%) Cu complexation (in words),[2],too slow
same,b) thermodynamic stability: log K[CuL],[5],27.10*
same,"half-life (t1/2), acid-assisted dissociation of copper(II) complex","[6]; 5M HCl, 90° C.",154 h
same,d) kinetic inertness: half-life (t1/2),"[6]; HCl, 5M, 90° C.",9240 min
same,"e) stability upon reduction, Cu(II) -> Cu (I): reduction potential",[7],−0.88 V
same,"e) stability upon reduction, Cu(II) -> Cu (I): reversibility",[7],quasi-reversible
"O=C(O)CN1CCN(CC(=O)O)CCN(CC(=O)O)CCN(CC(=O)O)CC1 [dota, 1,4,7,10-tetraazacyclododecane-1,4,7,10-tetraacetic acid]",c) inertness vs Zn: log K[ZnL],[1],21.01***
same,a) metallation kinetics: time required for complete (>99%) Cu complexation (in words),[2],fast
same,b) thermodynamic stability: pCu,[4],15.19
same,b) thermodynamic stability: log K[CuL],[5],22.21
same,d) kinetic inertness: half-life (t1/2),"[6]; HCl, 5M, 90° C.",<1 min
same,d) kinetic inertness: half-life (t1/2),"[6]; HClO4, 5M, 25° C.",about 5 min
same,"e) stability upon reduction, Cu(II) -> Cu (I): reduction potential",[7],−0.74 V
same,"e) stability upon reduction, Cu(II) -> Cu (I): reversibility",[7],irreversible
same,c) inertness vs Zn: pZn,[8],15.01
O=C(O)CN1CCCN(CC(=O)O)CCN(CC(=O)O)CCCN(CC(=O)O)CC1 [teta],c) inertness vs Zn: log K[ZnL],[1],15.81**
same,a) metallation kinetics: time required for complete (>99%) Cu complexation (in words),[2],fast
same,b) thermodynamic stability: pCu,[4],15.19
same,b) thermodynamic stability: log K[CuL],[5],21.60
same,d) kinetic inertness: half-life (t1/2),"[6]; HCl, 5M, 30° C.",5040 min
same,d) kinetic inertness: half-life (t1/2),"[6]; HCl, 5M, 90° C.",4.5 min
same,d) kinetic inertness: half-life (t1/2),"[6]; HClO4, 5M, 25° C.",about 8 min
same,"e) stability upon reduction, Cu(II) -> Cu (I): reduction potential",[7],−0.98 V
same,"e) stability upon reduction, Cu(II) -> Cu (I): reversibility",[7],irreversible
same,c) inertness vs Zn: pZn,[8],10.08
